# Where two headings read alike, the source gives them in different places.
# Biological target: T1, BCL6 (Homo sapiens, UniProt P41182)
# T1 construct: endogenous in cells; host or cells: T47D breast cancer epithelial cells
# Assay: Immunofluorescence protocol for high content imaging of BCL6 (degradation) in T47D cells, 3 days compound treatment
# Type: cell-based
# Settings: for Dmax: read-out: Mean Dmax (%)** category; for DC50: read-out: Mean DC50 (nM)* category
# How it was run: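 Remaining BCL6 in breast cancer T47D cells was measured by high-content immunofluorescence imaging after 3 days of treatment with serially diluted compound (top 0.1 or 1 μM). Nuclei were stained with Hoechst and cells with CellMask.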
# [1] = T47D cells, 3 days compound treatment
SMILES,Dmax (T47D),DC50,DC50 [1],Dmax [1]
"CNC(=O)COc1cc2cc(Nc3nc(N4CCC(CN5CCC6(CN(c7cccc8c7CN(C7CCC(=O)NC7=O)C8=O)C6)C(F)C5)CC4)ncc3Cl)ccc2n(C(C)C)c1=O (stereo not shown) [Compound 326, 2-{[6-({5-chloro-2-[4-({2-[2-(2,6-dioxopiperidin-3-yl)-1-oxo-2,3-dihydro-1H-isoindol-4-yl]-5-fluoro-2,7-diazaspiro[3.5]nonan-7-yl}methyl)piperidin-1-yl]pyrimidin-4-yl}amino)-2-oxo-1-(propan-2-yl)-1,2-dihydroquinolin-3-yl]oxy}-N-methylacetamide]",≥ 70%,< 10 nM,–,–
"CNC(=O)COc1cc2cc(Nc3nc(N4CCC(O[C@H]5C[C@H](N6CC7(CN(c8ccc9c(c8)CN(C8CCC(=O)NC8=O)C9=O)C7)C6)C5)CC4)ncc3Cl)ccc2n(C(C)C)c1=O (stereo partly shown) [Compound 353, 2-({6-[(5-chloro-2-{4-[(1r,3r)-3-{6-[2-(2,6-dioxopiperidin-3-yl)-1-oxo-2,3-dihydro-1H-isoindol-5-yl]-2,6-diazaspiro [3.3]heptan-2-yl}cyclobutoxy]piperidin-1-yl}pyrimidin-4-yl)amino]-2-oxo-1-(propan-2-yl)-1,2-dihydroquinolin-3-yl}oxy)-N-methylacetamide]",≥ 70%,< 10 nM,–,–
CNC(=O)COc1cc2cc(Nc3nc(N4CCC(O[C@H]5C[C@H](N6CCN(c7ccc8c(c7F)CN(C7CCC(=O)NC7=O)C8=O)C[C@H]6C)C5)CC4)ncc3Cl)ccc2n(C(C)C)c1=O (stereo partly shown) [Compound 182],–,–,< 10 nM,≥ 70%
"CNC(=O)COc1cc2cc(Nc3nc(N4CCN(CC5CCN(c6ccc7c(c6F)CN(C6CCC(=O)NC6=O)C7=O)CC5)CC4)ncc3Cl)ccc2n(C(C)C)c1=O (stereo not shown) [Compound 25, 2-{[6-({5-chloro-2-[4-({1-[2-(2,6-dioxopiperidin-3-yl)-4-fluoro-1-oxo-2,3-dihydro-1H-isoindol-5-yl]piperidin-4-yl}methyl)piperazin-1-yl]pyrimidin-4-yl}amino)-2-oxo-1-(propan-2-yl)-1,2-dihydroquinolin-3-yl]oxy}-N-methylacetamide]",–,–,< 10 nM,< 50%
"CNC(=O)COc1cc2cc(Nc3nc(N4CCN(CC5CCN(c6cc(OC)cc7c6CN(C6CCC(=O)NC6=O)C7=O)CC5)CC4)ncc3Cl)ccc2n(C(C)C)c1=O (stereo not shown) [Compound 119, 2-{[6-({5-chloro-2-[4-({1-[2-(2,6-dioxopiperidin-3-yl)-6-methoxy-1-oxo-2,3-dihydro-1H-isoindol-4-yl]piperidin-4-yl}methyl)piperazin-1-yl]pyrimidin-4-yl}amino)-2-oxo-1-(propan-2-yl)-1,2-dihydroquinolin-3-yl]oxy}-N-methylacetamide]",–,–,< 10 nM,50 to 70%
"CNC(=O)COc1cc2cc(Nc3nc(N4CCC(CN5CC6(CCN(c7cc8c(c(OC)c7)C(=O)N(C7CCC(=O)NC7=O)C8)CC6)C5)CC4)ncc3Cl)ccc2n(C(C)C)c1=O (stereo not shown) [Compound 115, 2-{[6-({5-chloro-2-[4-({7-[2-(2,6-dioxopiperidin-3-yl)-7-methoxy-1-oxo-2,3-dihydro-1H-isoindol-5-yl]-2,7-diazaspiro[3.5]nonan-2-yl}methyl)piperidin-1-yl]pyrimidin-4-yl}amino)-2-oxo-1-(propan-2-yl)-1,2-dihydroquinolin-3-yl]oxy}-N-methylacetamide]",–,–,< 10 nM,50 to 70%
"CNC(=O)COc1cc2cc(Nc3nc(N4CCC(O[C@H]5C[C@H](N6CCC7(CN(c8ccc9c(c8F)CN(C8CCC(=O)NC8=O)C9=O)C7)C6)C5)CC4)ncc3Cl)ccc2n(C(C)C)c1=O (stereo partly shown) [Compound 405, 2-({6-[(5-chloro-2-{4-[(1r,3r)-3-{2-[2-(2,6-dioxopiperidin-3-yl)-4-fluoro-1-oxo-2,3-dihydro-1H-isoindol-5-yl]-2,6-diazaspiro[3.4]octan-6-yl}cyclobutoxy]piperidin-1-yl}pyrimidin-4-yl)amino]-2-oxo-1-(propan-2-yl)-1,2-dihydroquinolin-3-yl}oxy)-N-methylacetamide]",≥ 70%,< 10 nM,–,–
"CC[C@@H]1CN([C@H]2C[C@H](OC3CCN(c4ncc(Cl)c(Nc5ccc6c(c5)cc(OCC(=O)NC)c(=O)n6C(C)C)n4)CC3)C2)CCN1c1ccc2c(c1Cl)CN(C1CCC(=O)NC1=O)C2=O (stereo partly drawn) [Compound 205, 2-({6-[(5-chloro-2-{4-[(1r,3r)-3-[(3R)-4-[4-chloro-2-(2,6-dioxopiperidin-3-yl)-1-oxo-2,3-dihydro-1H-isoindol-5-yl]-3-ethylpiperazin-1-yl]cyclobutoxy]piperidin-1-yl}pyrimidin-4-yl)amino]-2-oxo-1-(propan-2-yl)-1,2-dihydroquinolin-3-yl}oxy)-N-methylacetamide]",–,–,< 10 nM,≥ 70%
CNC(=O)COc1cc2cc(Nc3nc(N4CCC(C(C)(C)N5CCC6(CC5)CN(c5ccc7c(c5)C(=O)N(C5CCC(=O)NC5=O)C7=O)C6)CC4)ncc3Cl)ccc2n(C(C)C)c1=O (stereo not shown) [Compound 45],–,–,< 10 nM,50 to 70%
"CNC(=O)COc1cc2cc(Nc3nc(N4CCC(O[C@H]5C[C@H](N6CCC(c7cc8c(cc7OC)C(=O)N(C7CCC(=O)NC7=O)C8)CC6)C5)CC4)ncc3Cl)ccc2n(C(C)C)c1=O (stereo partly shown) [Compound 348, 2-({6-[(5-chloro-2-{4-[(1r,3r)-3-{4-[2-(2,6-dioxopiperidin-3-yl)-6-methoxy-1-oxo-2,3-dihydro-1H-isoindol-5-yl]piperidin-1-yl}cyclobutoxy]piperidin-1-yl}pyrimidin-4-yl)amino]-2-oxo-1-(propan-2-yl)-1,2-dihydroquinolin-3-yl}oxy)-N-methylacetamide]",≥ 70%,< 10 nM,–,–
"CNC(=O)COc1cc2cc(Nc3nc(N4CCC5(CC4)CC(C(=O)N4CCN(c6cccc7c6CN(C6CCC(=O)NC6=O)C7=O)CC4)C5)ncc3Cl)ccc2n(C(C)C)c1=O (stereo not shown) [Compound 27, 2-[(6-{[5-chloro-2-(2-{4-[2-(2,6-dioxopiperidin-3-yl)-1-oxo-2,3-dihydro-1H-isoindol-4-yl]piperazine-1-carbonyl}-7-azaspiro [3.5]nonan-7-yl)pyrimidin-4-yl]amino}-2-oxo-1-(propan-2-yl)-1,2-dihydroquinolin-3-yl)oxy]-N-methylacetamide]",–,–,< 10 nM,50 to 70%
"CNC(=O)COc1cc2cc(Nc3nc(N4CCC(O[C@H]5C[C@H](N6CCC7(CCCN(c8ccc9c(c8)C(=O)N(C8CCC(=O)NC8=O)C9=O)C7)C6)C5)CC4)ncc3Cl)ccc2n(C(C)C)c1=O (stereo partly shown) [Compound 359, 2-({6-[(5-chloro-2-{4-[(1r,3r)-3-{7-[2-(2,6-dioxopiperidin-3-yl)-1,3-dioxo-2,3-dihydro-1H-isoindol-5-yl]-2,7-diazaspiro [4.5]decan-2-yl}cyclobutoxy]piperidin-1-yl}pyrimidin-4-yl)amino]-2-oxo-1-(propan-2-yl)-1,2-dihydroquinolin-3-yl}oxy)-N-methylacetamide]",50 to 70%,10 to 50 nM,–,–
"CNC(=O)COc1cc2cc(Nc3nc(N4CCC(CN5CCC6(CN(c7ccc8c(c7)C(=O)N(C7CCC(=O)NC7=O)C8=O)C6)C(F)C5)CC4)ncc3Cl)ccc2n(C(C)C)c1=O (stereo not shown) [Compound 134, 2-{[6-({5-chloro-2-[4-({2-[2-(2,6-dioxopiperidin-3-yl)-1,3-dioxo-2,3-dihydro-1H-isoindol-5-yl]-5-fluoro-2,7-diazaspiro[3.5]nonan-7-yl}methyl)piperidin-1-yl]pyrimidin-4-yl}amino)-2-oxo-1-(propan-2-yl)-1,2-dihydroquinolin-3-yl]oxy}-N-methylacetamide]",–,–,< 10 nM,< 50%
"CNC(=O)COc1cc2cc(Nc3nc(N4CCC(F)(CN5CCC6(CC5)CN(c5cccc7c5C(=O)N(C5CCC(=O)NC5=O)C7=O)C6)CC4)ncc3Cl)ccc2n(C(C)C)c1=O (stereo not shown) [Compound 44, 2-{[6-({5-chloro-2-[4-({2-[2-(2,6-dioxopiperidin-3-yl)-1,3-dioxo-2,3-dihydro-1H-isoindol-4-yl]-2,7-diazaspiro [3.5]nonan-7-yl}methyl)-4-fluoropiperidin-1-yl]pyrimidin-4-yl}amino)-2-oxo-1-(propan-2-yl)-1,2-dihydroquinolin-3-yl]oxy}-N-methylacetamide]",–,–,< 10 nM,≥ 70%
"CNC(=O)COc1cc2cc(Nc3nc(N4CCC(O[C@H]5C[C@H](N6CCC(c7cc8c(cc7OC)C(=O)N(C7CCC(=O)NC7=O)C8=O)CC6)C5)CC4)ncc3Cl)ccc2n(C(C)C)c1=O (stereo partly shown) [Compound 160, 2-({6-[(5-chloro-2-{4-[(1r,3r)-3-{4-[2-(2,6-dioxopiperidin-3-yl)-6-methoxy-1,3-dioxo-2,3-dihydro-1H-isoindol-5-yl]piperidin-1-yl}cyclobutoxy]piperidin-1-yl}pyrimidin-4-yl)amino]-2-oxo-1-(propan-2-yl)-1,2-dihydroquinolin-3-yl}oxy)-N-methylacetamide]",–,–,< 10 nM,≥ 70%
"CNC(=O)COc1cc2cc(Nc3nc(N4CCC(O[C@H]5C[C@H](N6CC7(CCN(c8ccc9c(c8F)CN(C8CCC(=O)NC8=O)C9=O)C7)C6)C5)CC4)ncc3Cl)ccc2n(C(C)C)c1=O (stereo partly shown) [Compound 400, 2-({6-[(5-chloro-2-{4-[(1r,3r)-3-{6-[2-(2,6-dioxopiperidin-3-yl)-4-fluoro-1-oxo-2,3-dihydro-1H-isoindol-5-yl]-2,6-diazaspiro[3.4]octan-2-yl}cyclobutoxy]piperidin-1-yl}pyrimidin-4-yl)amino]-2-oxo-1-(propan-2-yl)-1,2-dihydroquinolin-3-yl}oxy)-N-methylacetamide]",≥ 70%,< 10 nM,–,–
"CNC(=O)COc1cc2cc(Nc3nc(N4CCC(O[C@H]5C[C@H](N6CC[C@@H](c7ccc8c(c7F)CN([C@H]7CCC(=O)NC7=O)C8=O)C[C@@H]6C)C5)CC4)ncc3Cl)ccc2n(C(C)C)c1=O [Compound 292, 2-({6-[(5-chloro-2-{4-[(1r,3r)-3-[(2S,4R)-4-{2-[(3S)-2,6-dioxopiperidin-3-yl]-4-fluoro-1-oxo-2,3-dihydro-1H-isoindol-5-yl}-2-methylpiperidin-1-yl]cyclobutoxy]piperidin-1-yl}pyrimidin-4-yl)amino]-2-oxo-1-(propan-2-yl)-1,2-dihydroquinolin-3-yl}oxy)-N-methylacetamide]",≥ 70%,< 10 nM,–,–

# — patent US11986532B2 (Arvinas Operations, Inc., priority 2021, dated 2024)
